The values that follow come from US20240002344A1, “COMPOUNDS, COMPOSITIONS AND METHODS FOR HISTONE LYSINE DEMETHYLASE INHIBITION” (FibroGen, Inc., priority 2020, published 2024).

One test addresses T1, recombinant human KDM4A (Homo sapiens, UniProt O75164).
T1 construct: made in house
T1 sequence (O75164 1-359 limits assumed): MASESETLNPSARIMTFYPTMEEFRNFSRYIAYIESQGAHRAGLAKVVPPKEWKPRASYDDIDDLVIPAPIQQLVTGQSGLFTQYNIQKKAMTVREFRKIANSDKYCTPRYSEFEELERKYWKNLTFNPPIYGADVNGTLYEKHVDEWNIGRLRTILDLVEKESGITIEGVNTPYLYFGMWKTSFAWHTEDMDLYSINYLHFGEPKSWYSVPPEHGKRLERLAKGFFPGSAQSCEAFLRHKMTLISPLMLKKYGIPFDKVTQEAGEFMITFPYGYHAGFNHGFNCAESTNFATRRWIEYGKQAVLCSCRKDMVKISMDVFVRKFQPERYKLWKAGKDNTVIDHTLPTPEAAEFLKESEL
Kind of test: 14CO2 capture enzymatic assay (decarboxylation of [1-14C] αKG), KDM4A. Type of test: biochemical. Conditions: 10 μM [1-14C] αKG, 90 μM non-labeled αKG, 50 μM peptide substrate, 37° C., 1 hour, final 1% DMSO. As for the experimental part: (§1) Enzymatic activity was determined based on the capture of ^14CO2 released by the decarboxylation of [1-^14C] αKG (Zhang et al., Anal. Biochem., 1998, vol. 271, pp. 137-142). [1-^14C]alphaketoglutarate (αKG) was from Perkin-Elmer, H3K4me3 and H3K9me3 peptides were from Mimotopes. All other reagents were from Sigma. Reaction mixtures included the following components: Fe(SO4), [1-^14C] αKG, non-labeled αKG, ascorbate, peptide-substrate (H3K4me3: H-ARTK(me3)QTARKSTGGKAPRKQLA-OH. H3K9me3: H-ARTKQTARK(me3)STGGKAPRKQLA-OH), NaCl, Tween-20 and catalase in 25 mM HEPES buffer, pH 7.4. The enzymatic reactions were initiated by addition of recombinant human KDM5B or KDM4A enzyme (truncated enzyme produced in house by method and using sequence disclosed in Ng et al, Nature 448:87-91, 2007). The reactions were performed in 96-well microtiter plates (20 μL total assay volume) (Greiner #650201). ^14CO2 was captured on a glass fiber filter paper (Cat. No. IH-201-A, Inotech Biosystems International) soaked with saturated Ba(OH)2 that was laid on top of the 96-well plate. A microtiter plate sealer film (Thermal Seal cat #T7961100) was applied to the filter paper. The plate and filter paper were sandwiched between two custom made aluminum plates (Advanced Component Manufacturing, Burlingame, CA) and transferred to a 37° C. oven and allowed to incubate for 1 hour. After incubation, the filter paper was dried in a 103° C. oven for 40-60 minutes. To determine percent turnover, aliquots of the reaction mixture were spotted onto the filter paper and the filter paper was dried again. The dry filter paper was exposed to a storage phosphor screen for 24-72 hours and the images recorded using a Typhoon FLA 7000 Imager (Amersham Biosciences, Piscataway, NJ). Integrated spot intensities corresponding to control reactions lacking the enzyme were subtracted from integration results for enzyme containing reactions and data were converted to enzyme dependent percent ^14CO2 release. All enzymatic reactions were run in duplicates.
(§2) For IC50 determination, a 3-fold dilution series of compound was prepared and added to the reaction mixture (final 1% DMSO, v/v) prior to enzyme addition. The final reagent concentrations were: 10 μM Fe(SO4), 10 μM [1-^14C] αKG, 90 μM non-labeled αKG, 2 mM ascorbate, 50 μM peptide substrate, 75 mM NaCl, 0.01% Tween-20 and ˜2 units/μL catalase. IC50s were determined by non-linear fitting using Grafit version 7.0.

The next test deals with T2, recombinant human KDM5B (Homo sapiens, UniProt Q9UGL1).
T2 sequence (Q9UGL1 374-755 limits assumed): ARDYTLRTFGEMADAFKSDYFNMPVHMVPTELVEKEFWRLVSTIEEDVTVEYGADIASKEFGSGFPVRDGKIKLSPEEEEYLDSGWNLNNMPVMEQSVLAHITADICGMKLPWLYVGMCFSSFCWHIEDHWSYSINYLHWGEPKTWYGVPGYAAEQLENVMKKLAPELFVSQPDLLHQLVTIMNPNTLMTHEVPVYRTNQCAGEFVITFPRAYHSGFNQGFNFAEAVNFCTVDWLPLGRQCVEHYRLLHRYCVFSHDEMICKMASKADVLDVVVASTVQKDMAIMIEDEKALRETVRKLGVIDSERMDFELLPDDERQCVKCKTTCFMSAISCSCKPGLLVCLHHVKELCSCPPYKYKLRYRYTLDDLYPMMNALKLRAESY
Briefly: 14CO2 capture enzymatic assay (decarboxylation of [1-14C] αKG), KDM5B. Type of test: biochemical. Conditions: 10 μM [1-14C] αKG, 90 μM non-labeled αKG, 50 μM peptide substrate, 37° C., 1 hour, final 1% DMSO. As for the experimental part:
as §1, §2

Molecules are shown by their SMILES. Bounds are passed on as bounds.

Take `N#Cc1cc(Cc2ccc(Cl)cc2)nc(C(=O)CCC(=O)O)c1O` [Example 17, 4-[6-(4-Chloro-benzyl)-4-cyano-3-hydroxy-pyridin-2-yl]-4-oxo-butyric acid]: the IC50 is above 40000 nM at recombinant human KDM4A and 190 nM at recombinant human KDM5B.

With `N#Cc1cc(Br)c(O)c(C(=O)CCC(=O)O)n1` [Example 2, 4-(4-Bromo-6-cyano-3-hydroxy-pyridin-2-yl)-4-oxo-butyric acid], the values for the half-inhibitory concentration (IC50) at recombinant human KDM4A and at recombinant human KDM5B were 19000 nM and 310 nM, respectively.

As for `Cc1cccc(-c2cc(C#N)c(O)c(C(=O)CCC(=O)O)n2)c1Cl` [Example 101, 4-[6-(2-Chloro-3-methyl-phenyl)-4-cyano-3-hydroxy-pyridin-2-yl]-4-oxo-butyric acid], the IC50 on recombinant human KDM4A is above 40000 nM; on recombinant human KDM5B, 310 nM.

As for `N#Cc1cc(Cc2cc(Cl)ccc2Cl)nc(C(=O)CCC(=O)O)c1O` [Example 63, 4-[4-Cyano-6-(2,5-dichloro-benzyl)-3-hydroxy-pyridin-2-yl]-4-oxo-butyric acid], the figures for the IC50 at recombinant human KDM4A and on recombinant human KDM5B were 36000 nM and 240 nM, respectively.

With `COc1ccc(Cl)c(-c2cc(C#N)c(O)c(C(=O)CCC(=O)O)n2)c1` [Example 106, 4-[6-(2-Chloro-5-methoxy-phenyl)-4-cyano-3-hydroxy-pyridin-2-yl]-4-oxo-butyric acid], the 50% inhibitory concentration (IC50) at recombinant human KDM4A was above 40000 nM; at recombinant human KDM5B, 350 nM.

For the compound `N#Cc1cc(Oc2ccccc2)cc(C(=O)CCC(=O)O)c1O` [Example 132, 4-(3-Cyano-2-hydroxy-5-phenoxy-phenyl)-4-oxo-butyric acid], the IC50 is above 40000 nM on recombinant human KDM4A and 310 nM at recombinant human KDM5B.

For `Cc1cc(Cl)cc(C)c1Cc1cc(C#N)c(O)c(C(=O)CCC(=O)O)n1` [Example 152, 4-[4-Cyano-6-(4-chloro-2,6-dimethyl-benzyl)-3-hydroxy-pyridin-2-yl]-4-oxo-butyric acid], the 50% inhibitory concentration (IC50) at recombinant human KDM4A is 9700 nM; on recombinant human KDM5B, 450 nM.

Take `Cc1cccc(Cc2cc(C#N)c(O)c(C(=O)CCC(=O)O)n2)c1` [Example 37, 4-[4-Cyano-3-hydroxy-6-(3-methyl-benzyl)-pyridin-2-yl]-4-oxo-butyric acid]: the results for the IC50 at recombinant human KDM4A and on recombinant human KDM5B were above 40000 nM and 60 nM, respectively.

Consider `N#Cc1cc(Oc2ccc(Cl)cc2)cc(C(=O)CCC(=O)O)c1O` [Example 137, 4-[5-(4-Chloro-phenoxy)-3-cyano-2-hydroxy-phenyl]-4-oxo-butyric acid], for which the IC50 on recombinant human KDM4A was above 40000 nM; at recombinant human KDM5B, 820 nM.

In the case of `N#Cc1cc(-c2cccc(Cl)c2)nc(C(=O)CCC(=O)O)c1O` [Example 23, 4-[6-(3-Chloro-phenyl)-4-cyano-3-hydroxy-pyridin-2-yl]-4-oxo-butyric acid], the IC50 is at least 40000 nM on recombinant human KDM4A and 150 nM on recombinant human KDM5B.

Consider `Cc1c(F)cccc1-c1cc(C#N)c(O)c(C(=O)CCC(=O)O)n1` [Example 80, 4-[4-Cyano-6-(3-fluoro-2-methyl-phenyl)-3-hydroxy-pyridin-2-yl]-4-oxo-butyric acid], for which the half-inhibitory concentration (IC50) is above 40000 nM on recombinant human KDM4A and 390 nM at recombinant human KDM5B.

As for `Cc1cc(C#N)ccc1-c1cc(C#N)c(O)c(C(=O)CCC(=O)O)n1` [Example 99, 4-[4-Cyano-6-(4-cyano-2-methyl-phenyl)-3-hydroxy-pyridin-2-yl]-4-oxo-butyric acid], the figures for the 50% inhibitory concentration (IC50) at recombinant human KDM4A and at recombinant human KDM5B were above 40000 nM and 270 nM, respectively.

`N#Cc1cc(Cc2cccc(OC(F)(F)F)c2)nc(C(=O)CCC(=O)O)c1O` [Example 48, 4-[4-Cyano-3-hydroxy-6-(3-trifluoromethoxy-benzyl)-pyridin-2-yl]-4-oxo-butyric acid]: the figures for the IC50 at recombinant human KDM4A and on recombinant human KDM5B were above 40000 nM and 310 nM, respectively.

Consider `N#Cc1ccc(Cc2cc(C#N)c(O)c(C(=O)CCC(=O)O)n2)cc1` [Example 44, 4-[4-Cyano-6-(4-cyano-benzyl)-3-hydroxy-pyridin-2-yl]-4-oxo-butyric acid], for which the results for the half-maximal inhibitory concentration (IC50) on recombinant human KDM4A and on recombinant human KDM5B were above 40000 nM and 230 nM, respectively.

Regarding `N#Cc1cc(Cc2c(Cl)ccc(F)c2Cl)cc(C(=O)CCC(=O)O)c1O` [Example 134, 4-[3-Cyano-5-(2,6-dichloro-3-fluoro-benzyl)-2-hydroxy-phenyl]-4-oxo-butyric acid], the IC50 is above 40000 nM on recombinant human KDM4A and 120 nM at recombinant human KDM5B.

For the compound `Cc1cccc(-c2cc(C#N)c(O)c(C(=O)CCC(=O)O)n2)c1` [Example 72, 4-(4-Cyano-3-hydroxy-6-m-tolyl-pyridin-2-yl)-4-oxo-butyric acid], the IC50 at recombinant human KDM4A was above 40000 nM; on recombinant human KDM5B it was 100 nM.

Regarding `N#Cc1cc(-c2ccc(OC(F)(F)F)cc2)nc(C(=O)CCC(=O)O)c1O` [Example 67, 4-[4-Cyano-3-hydroxy-6-(4-trifluoromethoxy-phenyl)-pyridin-2-yl]-4-oxo-butyric acid], the half-inhibitory concentration (IC50) at recombinant human KDM4A is above 40000 nM; on recombinant human KDM5B, 240 nM.

Regarding `N#Cc1cc(CCc2ccccc2)nc(C(=O)CCC(=O)O)c1O` [Example 15, 4-(4-Cyano-3-hydroxy-6-phenethyl-pyridin-2-yl)-4-oxo-butyric acid], the concentration for half-maximal inhibition (IC50) at recombinant human KDM4A was above 40000 nM; at recombinant human KDM5B, 390 nM.

For `N#Cc1cc(Oc2ccc(F)cc2)nc(C(=O)CCC(=O)O)c1O` [Example 79, 4-[4-Cyano-6-(4-fluoro-phenoxy)-3-hydroxy-pyridin-2-yl]-4-oxo-butyric acid], the IC50 was above 40000 nM at recombinant human KDM4A and 230 nM at recombinant human KDM5B.

Regarding `Cc1cc(C(F)(F)F)ccc1-c1cc(C#N)c(O)c(C(=O)CCC(=O)O)n1` [Example 96, 4-[4-Cyano-3-hydroxy-6-(2-methyl-4-trifluoromethyl-phenyl)-pyridin-2-yl]-4-oxo-butyric acid], the IC50 at recombinant human KDM4A was above 40000 nM; at recombinant human KDM5B it was 310 nM.

For the compound `COc1ccc(-c2cc(C#N)c(O)c(C(=O)CCC(=O)O)n2)c(Cl)c1` [Example 81, 4-[6-(2-Chloro-4-methoxy-phenyl)-4-cyano-3-hydroxy-pyridin-2-yl]-4-oxo-butyric acid], the values for the concentration for half-maximal inhibition (IC50) on recombinant human KDM4A and at recombinant human KDM5B were above 40000 nM and 340 nM, respectively.

Regarding `N#Cc1cc(Cc2c(Cl)cc(C(F)(F)F)cc2Cl)nc(C(=O)CCC(=O)O)c1O` [Example 145, 4-[4-Cyano-6-(2,6-dichloro-4-trifluoromethyl-benzyl)-3-hydroxy-pyridin-2-yl]-4-oxo-butyric acid], the concentration for half-maximal inhibition (IC50) at recombinant human KDM4A was above 40000 nM; at recombinant human KDM5B it was 360 nM.

In the case of `COc1ccc(-c2cc(C#N)c(O)c(C(=O)CCC(=O)O)n2)cc1` [Example 9, 4-[4-Cyano-3-hydroxy-6-(4-methoxy-phenyl)-pyridin-2-yl]-4-oxo-butyric acid], the IC50 on recombinant human KDM4A is above 40000 nM; at recombinant human KDM5B it was 160 nM.

In the case of `N#Cc1cc(Cc2cccc(-c3ccccc3)c2)nc(C(=O)CCC(=O)O)c1O` [Example 51, 4-(6-Biphenyl-3-ylmethyl-4-cyano-3-hydroxy-pyridin-2-yl)-4-oxo-butyric acid], the IC50 on recombinant human KDM4A is above 40000 nM; on recombinant human KDM5B it was 200 nM.

As for `N#Cc1cc(-c2ccc(-c3ccccc3)cc2)nc(C(=O)CCC(=O)O)c1O` [Example 75, 4-(6-Biphenyl-4-yl-4-cyano-3-hydroxy-pyridin-2-yl)-4-oxo-butyric acid], the IC50 at recombinant human KDM4A amounted to 20000 nM; on recombinant human KDM5B it was 90 nM.
